Measured values from a melting point compilation (Tetko et al.; mined from patent text by program, amines drawn as free bases though some values may be those of a salt).

Structure (SMILES)	melting point [°C]
O=S(=O)(c1ccccc1)N1CCCC1c1ccc(C(F)(F)F)cc1 (racemic)	95
Cc1cccc(C)c1C#CCOCCn1cnc2c(N)nc3ccccc3c21	200 to 201
Cc1ccc(S(=O)(=O)N2CC3C(C2)C3Nc2ncc3cc(-c4ccccc4Cl)c(=O)n(C4CC4)c3n2)cc1 (stereo not drawn)	265 to 274
CN1CC=C(c2c[nH]c3ccc(NC(=N)c4ccco4)cc23)CC1	212 to 215
O=C(c1cccs1)c1cnn2c(-c3cccc(N(C(=O)c4c(Cl)cccc4Cl)C(=O)c4c(Cl)cccc4Cl)c3)ccnc12	238 to 240
COC(=O)C=Cc1ccc(Br)cc1	80
Cn1ncnc1COc1nn2c(-c3cc(F)ccc3F)nncc2c1-c1ccccc1	199
N#Cc1ccc(Cn2cc(C=C3C(=O)NC(=O)NC3=O)c3ccccc32)cc1	> 300
CCOC(=O)NN=C(C)C1(N)C(O)CC2C3CC=C4CC(OC(C)=O)CCC4(C)C3CCC21C (stereo not drawn)	287 to 289
CCC(O)(c1ccc(O)cc1)c1ccc(Cl)cc1 (stereo not drawn)	148 to 149
CCCCCCCCCC(O)CNCCCNCC(O)CCCCCCCCC (stereo not drawn)	94 to 103
O=C(N[C@H](Cc1ccc(F)cc1)[C@@H](O)c1ccc(C(F)(F)F)cc1)c1cccc2ccccc12 (racemic)	207 to 208
O=[N+]([O-])c1ccccc1COc1cccc2cccnc12	152
N#CC(c1ccncc1)c1nnc(Nc2ccc3ncsc3c2)c2ccccc12 (stereo not drawn)	163 to 164
Nc1cc2c(cc1Cl)N1CCCN=C1C2=O	> 270
CC(=O)SCC(C)C(=O)Nc1cncc(C(=O)O)c1 (stereo not drawn)	154 to 158
CN1C(=O)CN(N=Cc2ccccc2)C1=O	253 to 255
CCCCCCCNC(=O)Nc1ccc(N(C)C)cc1C(=O)N(CC1CCN(C(c2ccccc2)c2ccccc2)CC1)N(C)C	178 to 179
CN(C)CCNc1nccc(N2CCCCCC2)n1	53 to 54.5
CCOC(=O)c1cn(C2CC2)c2cc(-c3cc(C)nc(CO)c3)c(F)cc2c1=O	240
Nc1nc2ccccc2c2c1nc(CNC(=O)C1CC1)n2CC1(O)CCCCC1	> 250
CC(=O)Nc1cccc(NC(=O)Cc2ccc(-n3c(-c4cccnc4N)nc4ccc(C)nc43)cc2)c1	207 to 209

Structure (SMILES)	melting point [°C]
Cc1ccc(S(=O)(=O)OCC2Cc3cccc(-c4ccc(F)cc4F)c3O2)cc1 (stereo not drawn)	116 to 118
Nc1cc(Cl)c(Oc2ccc(S(=O)(=O)c3ccc(Cl)cc3)cc2)c(Cl)c1	186 to 187
CC1(C)N(CC(N)=O)C(=O)CN1C(=O)CCl	214 to 216
CNc1ccc(C2=NCCO2)cc1	102 to 105
Cc1cc(C)c(C=CC#N)c(Br)c1	95 to 96
Cn1c(=O)c(-c2c(Cl)cccc2Cl)cc2cnc(NCCc3ccccn3)nc21	173 to 174
CCCNC1=CC(=O)c2c(OC)ccc(OC)c2C1=O	175 to 176
CCOC(=O)c1cc(=O)c2cccc(Br)c2o1	124 to 126
CCC(C)Nc1nc(Cc2cc(OC)c(OC)c(OC)c2)nc2sc(C#N)c(C)c12 (stereo not drawn)	134 to 137
COC(=O)/C=C/c1c(O)cccc1OCCCCC(=O)OC	97 to 98
Fc1ccc(-c2cn(-c3ccncc3)c3ccccc23)cc1	115 to 118
CNC(=O)NCCn1c(-c2ccc(CN3C(C)COCC3C)cc2)csc1=Nc1ccc(F)c(C)c1 (stereo not drawn)	116 to 119
CCC(C)(C)N=C(Nc1cncnc1)c1ccc(Cl)cc1Cl	136 to 137
CCCC(=O)c1ccc(OCCCCC(=O)O)c(Cl)c1Cl	102 to 103
COC(=O)C(Cl)=Cc1cc(-n2ncc(C(F)(F)F)cc2=O)ccc1Cl	140 to 141
COc1ccc(CCN(C)CCCCc2ccc(NC(=O)c3cccc4c(=O)c5ccccc5[nH]c34)cc2)cc1	143
Cn1c(OC2CCOC2)n[nH]c1=O (stereo not drawn)	164
CSc1nn2c(Cl)cc(C)nc2c1S(=O)(=O)c1ccccc1	163 to 165
C=CCOc1ccccc1OCC(O)CNC1CCc2ccccc2C1 (stereo not drawn)	98 to 100
Cc1c(C=Cc2ccccc2)cccc1[N+](=O)[O-]	75.9
CCOC(=O)C1=C(N2CCCC2)N=C(C)C(C(=O)OCC)C1c1ccccc1 (stereo not drawn)	57

Now from value to compound:

melting point [°C]	Structure (SMILES)
231 to 234	COc1cc2c(cc1C#Cc1ccc(C(=O)O)cc1)C(C)(C)CCC2(C)C
127 to 128	O=C1CN(c2ccccc2)C(=O)N1C(=O)c1ccccc1Oc1ccccc1
101	CCOC(=O)N1CCN(C(c2ccccc2)c2ccccc2)CC1(C)Cc1ccc(OC)c(OC)c1 (stereo not drawn)
196	O=C(c1ccc(F)cc1)C1CCN(CCN2C(=O)Nc3ccc(Cl)cc3C2c2ccccc2)CC1 (stereo not drawn)
169 to 170	CC(C)n1nc(-c2sc(C(=O)N3CCCC3)nc2-c2ccccc2)ccc1=O
164 to 165	CC(C)(C)n1c(=O)n(-c2ccnc(NC(=O)NCc3ccccn3)c2)c2ccccc21
218 to 219	CCCC(=O)c1ccc(NC(=S)N2CCN(c3ncnc4cc(OC)c(OC)cc34)CC2)cc1
189 to 192	CCN(CC)c1cc2c(cc1C)Nc1c(cc(NC(=O)c3ccc(OC)cc3)c3ncn(-c4ccc(OC)cc4)c13)O2
134 to 137	COC(=O)CCc1cccc(-n2c(C)nn(-c3ccc(C#N)cc3)c2=O)c1
209	COc1ccc(C=NNC(=O)c2ccc(O)cc2)cc1
276 to 277	Cn1cc(Br)nc(Nc2ccc(C(=O)N3CCOCC3)cc2)c1=O
155 to 157	CNC(=O)N(O)Cc1ccc2c(c1)OCc1ccccc1C2=O
131 to 133	COc1cc(N)c(Cl)cc1C(=O)OCC12CCCN(CC1)C2 (stereo not drawn)
277 to 279	O=C(O)COc1ccc2c(=O)c3c(oc2c1)C(=Cc1ccccc1)CC3
199 to 200	COCn1c(C(=O)O)cc2cccc(NS(=O)(=O)c3ccccn3)c21
198 to 200	COc1ccc(C#N)c(F)c1O
192 to 193	Cc1ccc(-c2ccc(C(=O)Nc3ccc4nc(CN5CCCC5)ccc4c3)cc2)cc1
106 to 119	COc1cc(C2CCN(C(=O)CN)CC2)ccc1Nc1ncc2ccc(-c3ccccc3N(C)S(C)(=O)=O)n2n1
132 to 134	CC1=C(C(=O)O)C(c2ccccc2[N+](=O)[O-])C(C(=O)OCCC#N)=C(C)N1 (stereo not drawn)
112 to 113	COC(=O)c1cccc(-c2cccc(Oc3ccc(Cl)cc3Cl)n2)c1
138 to 139	COc1ccc(OCc2ccc3ccccc3n2)cc1C1(c2ccccc2)CC2CCC1C2 (stereo not drawn)
86.8	Cc1nc(C)nc(-c2cccc(-c3ccccc3C)n2)n1
102 to 106	COC(OC)C1(C)CCc2c(C)c(O)c(C)c(C)c2O1 (stereo not drawn)
217 to 220	COc1ccc(-c2ccc(C(=O)Nc3ccc4cc(CN5CCCC5)cnc4c3F)cc2)cc1
64 to 66	CON=C(c1ccccc1)c1ccc2c(c1)C(C)(C)CCN2CCOc1ccc(CC(OC(C)=O)C(=O)O)cc1 (stereo not drawn)
